From US10059655B2, “Lipids and lipid compositions for the delivery of active agents” (priority 2013, dated 2018)

Experiment: Measurement of mRNA encapsulation in lipid nanoparticles (Quant-iT Ribogreen)
Format: physicochemical
Details: Leptin mRNA in LNP
Experimental: All equipment and disposable supplies are certified free of RNase activity by the manufacturer or rendered RNase free by use of the RNaseZap reagent (LifeTechnologies). mRNA is encapsulated at a cationic lipid amine to mRNA phosphate (N:P) molar ratio of 4:1. Lipids (cationic lipid, DSPC, cholesterol and lipidated PEG or stealth lipid) are dissolved in ethanol. The molar ratios are 40:10:38:2, respectively. The mixture is sonicated briefly, then gently agitated for 5 minutes and then maintained at 37° C. until use. mRNA is exchanged into citrate buffer pH 5.8-6.0 by use of Amicon Ultra-15 centrifugal concentrators, and the final concentration is adjusted to 0.5 mg/ml and held at 37° C. until use. An equal volume of lipids in ethanol, mRNA in citrate buffer, and citrate buffer alone are drawn into disposable syringes.
Tubing leading from syringes containing lipids and mRNA are attached to the T junction, and tubing leading from the syringe containing citrate buffer alone is paired with the tubing exiting the T-junction over a collection vessel containing a stir bar on an active stir plate. Syringes are placed in a syringe pump set to expel contents at a flow rate of 1 ml per minute. The pump is activated, and the collected mRNA in lipid nanoparticles is transferred to SnakeSkin dialysis tubing (10,000 MWCO, Thermo Scientific). Material is dialyzed against RNAse- and pyrogen-free 1× phosphate buffered saline overnight at 4° C.
Percent encapsulation of mRNA in lipid nanoparticles is determined using the Quant-iT Ribogreen RNA Assay kit (Life Technologies). The LNP-mRNA suspension is assayed in buffer (mRNA outside the particle), and buffer plus Triton X-100 detergent (total mRNA). The difference calculated is the mRNA inside the particle. Prepare a 1000 ng/mL stock from the RNA provided in the kit and use this to generate a standard curve (0 ng/ml, 15.63-1000 ng/ml) in TE and TE+0.75% Triton X-100. Prepare LNP-mRNA samples in TE buffer and TE buffer+0.75% Triton X-100 with appropriate dilution so that reading is in the range of standard curve (400-2,000 fold). In a 384-well plate (Costar non-treated #3573) add 0.04 ml of standard (in duplicate) or sample (in triplicate) per well. Dilute Ribogreen reagent 240-fold in TE buffer and add 0.06 ml per well. Mix contents of wells and measure fluorescence (excitation=480 nm, emission=520 nm). Subtract background values (no RNA) from standard and test sample values and determine the concentrations of RNA in the samples using the standard curves. Determine the percent encapsulation of the sample by dividing the difference in concentrations between sample+triton and sample in buffer alone by the sample+triton concentration.

Compared with `CCCCC/C=C\C/C=C\CCCCCCCC(=O)OCC(COC(=O)CCCCCCC/C=C\C/C=C\CCCCC)COC(=O)CCN1CCN(C)CC1` [Example 2, (9Z,9′Z,12Z,12′Z)-2-(((3-(4-methylpiperazin-1-yl)propanoyl)oxy)methyl)propane-1,3-diyl bis(octadeca-9,12-dienoate)], `CCCCC/C=C\C/C=C\CCCCCCCC(=O)OCC(COC(=O)CCCCCCC/C=C\C/C=C\CCCCC)COC(=O)CCN1CCOCC1` [Example 10, (9Z,9′Z,12Z,12′Z)-2-(((3-morpholinopropanoyl)oxy)methyl)propane-1,3-diyl bis(octadeca-9,12-dienoate)] is lower in “% encapsulation mRNA Leptin” value: 70.5% for the first, 1.9% for the second.

Compared with `CCCCC/C=C\C/C=C\CCCCCCCC(=O)OCC(COC(=O)CCCCCCC/C=C\C/C=C\CCCCC)COC(=O)CCCN1CCCC1` [Example 3, (9Z,9′Z,12Z,12′Z)-2-(((4-(pyrrolidin-1-yl)butanoyl)oxy)methyl)propane-1,3-diyl bis(octadeca-9,12-dienoate)], `CCCCC/C=C\C/C=C\CCCCCCCC(=O)OCC(COC(=O)CCCCCCC/C=C\C/C=C\CCCCC)COC(=O)CCCN(C)C` [Example 11, (9Z,9′Z,12Z,12′Z)-2-(((4-(dimethylamino)butanoyl)oxy)methyl)propane-1,3-diyl bis(octadeca-9,12-dienoate)] is higher in “% encapsulation mRNA Leptin” value: 32.5% for the first, 45.4% for the second.

Compared with `CCCCC/C=C\C/C=C\CCCCCCCC(=O)OCC(COC(=O)CCCCCC(CCCCCC)CCCCCC)COC(=O)OCCCN(CC)CC` (centres unmarked) [Example 23, (9Z,12Z)-3-(((3-(diethylamino)propoxy)carbonyl)oxy)-2-(((7-hexyltridecanoyl)oxy)methyl)propyl octadeca-9,12-dienoate], `CCCCC/C=C\C/C=C\CCCCCCCC(=O)OCC(COC(=O)CCCCC(OCCCCCCCC)OCCCCCCCC)COC(=O)OCCCN(CC)CC` (centres unmarked) [Example 27, (9Z,12Z)-3-((6,6-bis(octyloxy)hexanoyl)oxy)-2-((((3-(diethylamino)propoxy)carbonyl)oxy)methyl)propyl octadeca-9,12-dienoate] is lower in “% encapsulation mRNA Leptin” value: 82.0% for the first, 80.8% for the second.

First: CCCCC/C=C\C/C=C\CCCCCCCC(=O)OCC(COC(=O)CCC(OCCCCCCCC)OCCCCCCCC)COC(=O)C1CCN(C(C)C)CC1 (centres unmarked) [Example 33, 3-((4,4-bis(octyloxy)butanoyl)oxy)-2-(((9Z,12Z)-octadeca-9,12-dienoyloxy)methyl)propyl 1-isopropylpiperidine-4-carboxylate]
Second: CCCCC/C=C\C/C=C\CCCCCCCC(=O)OCC(COC(=O)CCC(OCCCCCCCC)OCCCCCCCC)COC(=O)C1CCN(C)CC1 (centres unmarked) [Example 41, 3-((4,4-bis(octyloxy)butanoyl)oxy)-2-(((9Z,12Z)-octadeca-9,12-dienoyloxy)methyl)propyl 1-methylpiperidine-4-carboxylate]
The “% encapsulation mRNA Leptin” value of the first is lower: 97.4% for the first, 97.5% for the second.

Going from `CCCCC/C=C\C/C=C\CCCCCCCC(=O)OCC(COC(=O)CCC(OCCCCCCCC)OCCCCCCCC)COC(=O)[C@@H]1CCCN1C` (stereo partly drawn) [Example 37, (2S)-3-((4,4-bis(octyloxy)butanoyl)oxy)-2-(((9Z,12Z)-octadeca-9,12-dienoyloxy)methyl)propyl 1-methylpyrrolidine-2-carboxylate] to `CCCCC/C=C\C/C=C\CCCCCCCC(=O)OCC(COC(=O)CCC(OCCCCCCCC)OCCCCCCCC)COC(=O)[C@H]1CCCN1C` (stereo partly drawn) [Example 38, (2R)-3-((4,4-bis(octyloxy)butanoyl)oxy)-2-(((9Z,12Z)-octadeca-9,12-dienoyloxy)methyl)propyl 1-methylpyrrolidine-2-carboxylate], the “% encapsulation mRNA Leptin” value falls from 14.3% to 9.6%.

First: CCCCC/C=C\C/C=C\CCCCCCCC(=O)OCC(COC(=O)CCC(OCCCCCCCC)OCCCCCCCC)COC(=O)C1CN(C)CCO1 (centres unmarked) [Example 39, 3-((4,4-bis(octyloxy)butanoyl)oxy)-2-(((9Z,12Z)-octadeca-9,12-dienoyloxy)methyl)propyl 4-methylmorpholine-2-carboxylate]
Second: CCCCC/C=C\C/C=C\CCCCCCCC(=O)OCC(COC(=O)CCC(OCCCCCCCC)OCCCCCCCC)COC(=O)C1CCCN(C)C1 (centres unmarked) [Example 42, 3-((4,4-bis(octyloxy)butanoyl)oxy)-2-(((9Z,12Z)-octadeca-9,12-dienoyloxy)methyl)propyl 1-methylpiperidine-3-carboxylate]
The “% encapsulation mRNA Leptin” value of the first is lower: 10.0% for the first, 90.3% for the second.

First: CCCCC/C=C\C/C=C\CCCCCCCC(=O)OCC(COC(=O)CCC(OCCCCCCCC)OCCCCCCCC)COC(=O)c1ccc(CN(CC)CC)cc1 (centres unmarked) [Example 44, 3-((4,4-bis(octyloxy)butanoyl)oxy)-2-(((9Z,12Z)-octadeca-9,12-dienoyloxy)methyl)propyl 4-((diethylamino)methyl)benzoate]
Second: CCCCC/C=C\C/C=C\CCCCCCCC(=O)OCC(COC(=O)CCC(OCCCCCCCC)OCCCCCCCC)COC(=O)NCCCN(C)C (centres unmarked) [Example 53, (9Z,12Z)-3-((4,4-bis(octyloxy)butanoyl)oxy)-2-((((3-(dimethylamino)propyl)carbamoyl)oxy)methyl)propyl octadeca-9,12-dienoate]
The “% encapsulation mRNA Leptin” value of the first is lower: 22.4% for the first, 93.5% for the second.

First: CCCCC/C=C\C/C=C\CCCCCCCC(=O)OCC(COC(=O)CCC(OCCCCCCCC)OCCCCCCCC)COC(=O)OCCCN1CCCC1 (centres unmarked) [Example 45, (9Z,12Z)-3-((4,4-bis(octyloxy)butanoyl)oxy)-2-((((3-(pyrrolidin-1-yl)propoxy)carbonyl)oxy)methyl)propyl octadeca-9,12-dienoate]
Second: CCCCC/C=C\C/C=C\CCCCCCCC(=O)OCC(COC(=O)CCC(OCCCCCCCC)OCCCCCCCC)COC(=O)OCCCN1CCN(C)CC1 (centres unmarked) [Example 46, (9Z,12Z)-3-((4,4-bis(octyloxy)butanoyl)oxy)-2-((((3-(4-methylpiperazin-1-yl)propoxy)carbonyl)oxy)methyl)propyl octadeca-9,12-dienoate]
The “% encapsulation mRNA Leptin” value of the first is higher: 84.4% for the first, 63.5% for the second.

Compared with `CCCCC/C=C\C/C=C\CCCCCCCC(=O)OCC(COC(=O)CCC(OCCCCCCCC)OCCCCCCCC)COC(=O)OC1CCN(C)C1` (centres unmarked) [Example 47, (9Z,12Z)-3-((4,4-bis(octyloxy)butanoyl)oxy)-2-(((((1-methylpyrrolidin-3-yl)oxy)carbonyl)oxy)methyl)propyl octadeca-9,12-dienoate], `CCCCC/C=C\C/C=C\CCCCCCCC(=O)OCC(COC(=O)CCC(OCCCCCCCC)OCCCCCCCC)COC(=O)OC1CN(C)C1` (centres unmarked) [Example 49, (9Z,12Z)-3-((4,4-bis(octyloxy)butanoyl)oxy)-2-(((((1-methylazetidin-3-yl)oxy)carbonyl)oxy)methyl)propyl octadeca-9,12-dienoate] is lower in “% encapsulation mRNA Leptin” value: 90.4% for the first, 82.8% for the second.

Going from `CCCCC/C=C\C/C=C\CCCCCCCC(=O)OCC(COC(=O)CCC(OCCCCCCCC)OCCCCCCCC)COC(=O)OC1CCN(CC)CC1` (centres unmarked) [Example 50, (9Z,12Z)-3-((4,4-bis(octyloxy)butanoyl)oxy)-2-(((((1-ethylpiperidin-4-yl)oxy)carbonyl)oxy)methyl)propyl octadeca-9,12-dienoate] to `CCCCC/C=C\C/C=C\CCCCCCCC(=O)OCC(COC(=O)CCC(OCCCCCCCC)OCCCCCCCC)COC(=O)OCC1CCN(C)CC1` (centres unmarked) [Example 51, (9Z,12Z)-3-((4,4-bis(octyloxy)butanoyl)oxy)-2-(((((1-methylpiperidin-4-yl)methoxy)carbonyl)oxy)methyl)propyl octadeca-9,12-dienoate], the “% encapsulation mRNA Leptin” value falls from 83.9% to 82.3%.

Going from `CCCCC/C=C\C/C=C\CCCCCCCC(=O)OCC(COC(=O)CCC(OCCCCCCCC)OCCCCCCCC)COC(=O)OC1CC(C)(C)N(C)C(C)(C)C1` (centres unmarked) [Example 52, (9Z,12Z)-3-((4,4-bis(octyloxy)butanoyl)oxy)-2-(((((1,2,2,6,6-pentamethylpiperidin-4-yl)oxy)carbonyl)oxy)methyl)propyl octadeca-9,12-dienoate] to `CCCCC/C=C\C/C=C\CCCCCCCC(=O)OCC(COC(=O)CCCCCCCCC(=O)OCCCCCCCC)COC(=O)C1(C)CCN(C)C1` (centres unmarked) [Example 56, 1-(3-((1,3-dimethylpyrrolidine-3-carbonyl)oxy)-2-(((9Z,12Z)-octadeca-9,12-dienoyloxy)methyl)propyl) 10-octyl decanedioate], the “% encapsulation mRNA Leptin” value rises from 32.2% to 83.3%.

For `CCCCCCCCOC(CCC(=O)OCC(COC(=O)CCC(OCCCCCCCC)OCCCCCCCC)COC(=O)C1CCN(C)C1)OCCCCCCCC` (centres unmarked) [Example 57, 2-(((1-methylpyrrolidine-3-carbonyl)oxy)methyl)propane-1,3-diyl bis(4,4-bis(octyloxy)butanoate)], the “% encapsulation mRNA Leptin” value was 95.2%.
